Experimental data taken from PMC2575047 (Molecular pharmacology, 2008).
Read-outs that look alike come from different tables or passages of the source. Values belong to the compound of their own block, whether it stands above or below them.

What was measured:
[1] = Pharmacokinetics in Sprague Dawley rats; assay type: in vivo; settings: rat
[2] = system: blood lymphocytes (WBC, B220+, CD4+, CD8+); test: CYM-5442 mediated lymphopenia in mice; assay type: in vivo, C57BL6 mice; settings: for B220^+ cells, percent relative to animals receiving both drug vehicles / CD4^+ cells, percent relative to animals receiving both drug vehicles / CD8^+ cells, percent relative to animals receiving both drug vehicles: W146 20 mg/kg i.p. 30 min before, CYM-5442 2 mg/kg
human S1P1-GFP [3] = biological target: T1, human S1P1-GFP (Homo sapiens, UniProt P21453); test: S1P1-GFP ubiquitination in HEK293 cells; assay type: cell-based
T1 sequence (P21453 whole entry): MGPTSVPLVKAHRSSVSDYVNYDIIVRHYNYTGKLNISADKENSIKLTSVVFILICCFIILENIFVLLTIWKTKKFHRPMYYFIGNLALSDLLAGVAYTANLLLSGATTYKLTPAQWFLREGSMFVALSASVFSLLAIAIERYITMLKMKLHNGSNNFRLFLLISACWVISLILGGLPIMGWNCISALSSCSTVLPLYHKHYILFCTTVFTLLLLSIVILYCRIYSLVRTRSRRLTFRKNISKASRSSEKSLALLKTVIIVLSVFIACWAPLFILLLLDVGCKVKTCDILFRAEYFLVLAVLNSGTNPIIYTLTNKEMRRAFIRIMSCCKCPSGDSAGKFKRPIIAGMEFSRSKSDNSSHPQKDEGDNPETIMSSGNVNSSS

Water solubility = assay type: physicochemical
[4] = Brain exposure in C57Bl6 mice; assay type: in vivo; settings: C57Bl6, mouse, ip, 10 mg/kg
S1P1 R^120A mutant = S1P1 R^120A mutant (Homo sapiens, UniProt P21453, R120A); assay type: cell-based; settings: for Emax: CHO-K1; for EC50: without W146
Chain of S1P1 R^120A mutant (P21453 whole entry R120A): as the sequence (P21453 whole entry) above, with R120A counted along it

[5] = Serum drug concentration in the lymphopenia studies; assay type: in vivo, C57BL6 mice; settings: mice; for serum drug concentration (± SD): W146 20 mg/kg + CYM-5442 2 mg/kg group, 5 h
S1P1 E^121A mutant = S1P1 E^121A mutant (Homo sapiens, UniProt P21453, E121A); assay type: cell-based; settings: for EC50: without W146
Chain of S1P1 E^121A mutant (P21453 whole entry E121A): as the sequence (P21453 whole entry) above, with E121A counted along it

human S1P1-GFP [6] = biological target: T1, human S1P1-GFP; test: S1P1-GFP internalization in HEK293 cells; assay type: cell-based
human S1P1-GFP [7] = biological target: T1, human S1P1-GFP; test: S1P1-GFP phosphorylation, P^32-orthophosphate labeled HEK293 cells; assay type: cell-based
human S1P5 = human S1P5 (Homo sapiens, UniProt Q9H228); test: S1P5 agonist format, TANGO S1P5-bla U2OS cells; assay type: cell-based
Chain of human S1P5 (Q9H228 whole entry): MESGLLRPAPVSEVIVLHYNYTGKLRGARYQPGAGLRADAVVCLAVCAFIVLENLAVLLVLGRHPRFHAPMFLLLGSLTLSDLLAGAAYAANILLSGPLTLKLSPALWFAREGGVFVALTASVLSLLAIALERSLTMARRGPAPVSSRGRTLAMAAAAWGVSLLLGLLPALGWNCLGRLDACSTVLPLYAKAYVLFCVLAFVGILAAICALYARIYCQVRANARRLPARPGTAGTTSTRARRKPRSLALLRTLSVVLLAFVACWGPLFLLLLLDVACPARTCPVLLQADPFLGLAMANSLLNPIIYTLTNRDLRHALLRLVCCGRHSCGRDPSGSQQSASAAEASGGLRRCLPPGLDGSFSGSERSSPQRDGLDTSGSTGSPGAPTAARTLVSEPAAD

human S1P1 = human S1P1 (Homo sapiens, UniProt P21453); assay type: cell-based
Chain of human S1P1 (P21453 whole entry): as the sequence (P21453 whole entry) above

[8] = biological target: human wild-type S1P1 (WT) (Homo sapiens, UniProt P21453); assay type: cell-based
Chain of human wild-type S1P1 (WT) (P21453 whole entry): as above

[9] = Sprague Dawley, plasma, iv, 1 mg/kg
[10] = Sprague Dawley, plasma, po, 2 mg/kg
[11] = EC50, activation of p42/p44 MAPK phosphorylation, WT, without W146

SMILES: CCOc1ccc(-c2nc(-c3cccc4c3CCC4NCCO)no2)cc1OCC (centres unmarked) [CYM-5442, 2-(4-(5-(3,4-diethoxyphenyl)-1,2,4-oxadiazol-3-yl)-2,3-dihydro-1H-inden-1-ylamino) ethanol]
AUC [1, 9]: 0.57 ± 0.1 µM·h
Cmax [1, 9]: 220 ± 18 nM
MRT [1, 9]: 3.54 ± 0.38 h
Tmax [1, 9]: 0.083 h
clearance [1, 9]: 72.9 ± 11.7 mL/min/kg
half-life ([1]; Sprague Dawley, plasma, iv, 1 mg/kg, half-life (t1/2)): 0.833 h
half-life ([1]; Sprague Dawley, plasma, iv, 1 mg/kg, t1/2, rat, 1 mg/kg i.v.): 3.05 ± 0.37 h
bioavailability ([1]; Sprague Dawley, plasma, oral, 2 mg/kg): 20.5 ± 4.67%
AUC [1, 10]: 0.23 ± 0.053 µM·h
Cmax [1, 10]: 36 ± 7.2 nM
MRT [1, 10]: 6.35 ± 2.1 h
Tmax [1, 10]: 1.17 ± 0.76 h
half-life ([1]; Sprague Dawley, plasma, po, 2 mg/kg, half-life (t1/2), P.O.): 3 h
half-life ([1]; Sprague Dawley, plasma, po, 2 mg/kg, t1/2, rat, 2 mg/kg PO): 4 ± 1.45 h
AUC (% extrap,ob) ([1]; 1 mg/kg i.v.): 11.35 ± 14.20%
AUC (% extrap,ob) ([1]; 2 mg/kg PO): 27.80 ± 14.20%
Cl ([1]; 2 mg/kg PO): 360.1 ± 73.3 mL/min/kg
decrease of B-lymphocytes, of vehicle ([2]; abstract): 65%
decrease of T-lymphocytes, of vehicle ([2]; abstract): 85%
reduction of CD4^+, CD8^+ and B220^+ cell counts, of vehicle ([2]; mice, 2 mg/kg, 5 h): approximately 50%
decrease of B220^+ B-cells compared to vehicle ([2]; mice, 10 mg/kg i.p., 5 h): 63%
decrease of CD4^+ T-cell counts, of vehicle ([2]; mice, 10 mg/kg i.p., 5 h): 83%
decrease of CD8^+ T-cell counts, of vehicle ([2]; mice, 10 mg/kg i.p., 5 h): 84%
decrease of WBC counts vs. vehicle ([2]; mice, 10 mg/kg i.p., 5 h): 64%
% CD4^+ ([2]; mice, 10 mg/kg i.p., 5 h, vehicle 11.5±0.2): 1.9±0.2 %
WBC (K/mm^3) ([2]; mice, 10 mg/kg i.p., 5 h, vehicle 11.9±0.2): 4.3±0.4 K/mm^3
% CD8^+ ([2]; mice, 10 mg/kg i.p., 5 h, vehicle 11.9±0.3): 1.9±0.4 %
% B220^+ ([2]; mice, 10 mg/kg i.p., 5 h, vehicle 40.5±0.6): 14.7±0.5 %
B220^+ cells, percent relative to animals receiving both drug vehicles ([2]; mice, 5 h): 46.0±18.1 %
CD4^+ cells, percent relative to animals receiving both drug vehicles ([2]; mice, 5 h): 53.5 ± 6.5 %
CD8^+ cells, percent relative to animals receiving both drug vehicles ([2]; mice, 5 h): 47.4±7.5 %
S1P1-GFP receptor ubiquitination (human S1P1-GFP [3]; 1 h incubation): stimulated receptor ubiquitination (UB-S1P1-GFP) to AFD-R levels
water solubility (Water solubility): moderately water-soluble
concentration at 2 h ([4]; brain): 13700 ± 2900 nM
concentration at 2 h ([4]; plasma): 1080 ± 300 nM
Emax (S1P1 R^120A mutant): 100%
EC50 (S1P1 R^120A mutant; EC50, p42/p44 MAPK activity, R^120A): 67 nM
EC50 (S1P1 R^120A mutant; LogEC50, R^120A, log EC50 printed negative): 63.1 nM
rightward shift in EC50 by 10 μM W146 (S1P1 R^120A mutant; R^120A): 3 fold
serum drug concentration (± SD) [5]: 190 ± 40 nM
serum CYM-5442 concentration required for induction and maintenance of lymphopenia ([5]; i.p.): ~50 nM
Emax (S1P1 E^121A mutant; CHO-K1): 100%
rightward shift in potency by W146 preincubation (S1P1 E^121A mutant; E^121A): 10 fold
EC50 (S1P1 E^121A mutant; LogEC50, E^121A, log EC50 printed negative): 126 nM
EC50 (S1P1 E^121A mutant; mean EC50, activation of p42/p44 MAPK, E^121A): 134 nM
S1P1-GFP internalization (human S1P1-GFP [6]; 500 nM): stimulated the internalization of S1P1-GFP receptor
S1P1 phosphorylation (human S1P1-GFP [7]; 500 nM): stimulated S1P1 phosphorylation in a time-dependent manner
selectivity for S1P1 over S1P5 (human S1P5): 10,000 fold
Emax (human S1P5; U2OS, read-out: Agonist format (Emax)): 20%
EC50 (human S1P1): 1.35 nM
agonist efficacy compared to SEW2871 (human S1P1; CRE reporter, agonist format): full agonist compared to SEW2871
more potent than SEW2871 in vitro (human S1P1; depending on which agonist format was used): 10-50 fold
Emax (human S1P1; read-out: Agonist format (Emax)): 100%
Emax ([8]; CHO-K1): 70%
EC50 [8, 11]: 46 nM

Emax (S1P1 R^120A mutant): 25%
p42/p44 MAPK activity in the mutant (S1P1 R^120A mutant; R^120A): near loss of p42/p44 MAPK activity
EC50 ([8]; EC50, activation of p42/p44 MAPK phosphorylation, WT, 10 μM W146 prior to agonist): 140 nM
EC50 [8, 11]: 2.3 nM
EC50 ([8]; LogEC50, WT, without W146, log EC50 printed negative, 5 min stimulation): 2.51 nM
rightward shift in potency by 10 μM W146 ([8]; WT, agonist with W146 vs agonist alone): 60 fold
SMILES: CCCCCCCCCCCCC/C=C/[C@@H](O)[C@@H](N)COP(=O)(O)O [S1P, Sphingosine-1 phosphate]
p42/p44 MAPK activation in the mutant (S1P1 E^121A mutant; E^121A): did not lead to significant p42/p44 MAPK activation

block of S1P and CYM-5442 stimulated P42/P44 MAPK phosphorylation ([8]; 10 μM pre-incubation): completely blocked
SMILES: N#CC(=C(/N)Sc1ccccc1N)/C(C#N)=C(/N)Sc1ccccc1N [U0126]

effect on CYM-5442-stimulated S1P1 ubiquitination (human S1P1-GFP [3]; pre-incubation 30 min): nearly abolish
serum drug concentration (± SD) [5]: 1760 ± 310 nM
effect on internalization of S1P1-GFP by CYM-5442 (human S1P1-GFP [6]; 10 μM preincubation): completely blocked
effect of antagonist alone on S1P1 phosphorylation (human S1P1-GFP [7]; 10 μM): no effect
effect on CYM-5442-mediated S1P1 phosphorylation (human S1P1-GFP [7]; 10 μM, 30 min pre-incubation): completely abolished
inhibition of CYM-5442-mediated p42/p44 MAPK phosphorylation ([8]; WT cells, 10 μM W146 preincubation): complete inhibition
SMILES: CCCCCCc1cccc(NC(=O)[C@H](N)CCP(=O)(O)O)c1 [W146, (R)-3-Amino-(3-hexylphenylamino)-4-oxobutylphosphonic acid, reference compound]
reversal of CYM-5442 effects on B-220^+, CD4^+ and CD8^+ cell counts ([2]; W146 20 mg/kg 30 min before CYM-5442 2 mg/kg): partially recover
B220^+ cells, percent relative to animals receiving both drug vehicles ([2]; mice, 5 h): 114.7±5.9%
CD4^+ cells, percent relative to animals receiving both drug vehicles ([2]; mice, 5 h): 108.1 ±17.4%
CD8^+ cells, percent relative to animals receiving both drug vehicles ([2]; mice, 5 h): 112.2±19.6%
effect of antagonist alone on internalization (human S1P1-GFP [6]): did not have an effect on internalization
